Calls of active or inactive are those of the source. The calls are words filed in the database; no cut-off is given here.
Assays:
ATP-citrate synthase = target: T1, ATP-citrate synthase (Homo sapiens, UniProt P53396); experiment: Inhibition of ATP citrate lyase (unknown origin) using sodium citrate as substrate by ADP-Glo luminescence assay
T1 sequence (P53396 whole entry): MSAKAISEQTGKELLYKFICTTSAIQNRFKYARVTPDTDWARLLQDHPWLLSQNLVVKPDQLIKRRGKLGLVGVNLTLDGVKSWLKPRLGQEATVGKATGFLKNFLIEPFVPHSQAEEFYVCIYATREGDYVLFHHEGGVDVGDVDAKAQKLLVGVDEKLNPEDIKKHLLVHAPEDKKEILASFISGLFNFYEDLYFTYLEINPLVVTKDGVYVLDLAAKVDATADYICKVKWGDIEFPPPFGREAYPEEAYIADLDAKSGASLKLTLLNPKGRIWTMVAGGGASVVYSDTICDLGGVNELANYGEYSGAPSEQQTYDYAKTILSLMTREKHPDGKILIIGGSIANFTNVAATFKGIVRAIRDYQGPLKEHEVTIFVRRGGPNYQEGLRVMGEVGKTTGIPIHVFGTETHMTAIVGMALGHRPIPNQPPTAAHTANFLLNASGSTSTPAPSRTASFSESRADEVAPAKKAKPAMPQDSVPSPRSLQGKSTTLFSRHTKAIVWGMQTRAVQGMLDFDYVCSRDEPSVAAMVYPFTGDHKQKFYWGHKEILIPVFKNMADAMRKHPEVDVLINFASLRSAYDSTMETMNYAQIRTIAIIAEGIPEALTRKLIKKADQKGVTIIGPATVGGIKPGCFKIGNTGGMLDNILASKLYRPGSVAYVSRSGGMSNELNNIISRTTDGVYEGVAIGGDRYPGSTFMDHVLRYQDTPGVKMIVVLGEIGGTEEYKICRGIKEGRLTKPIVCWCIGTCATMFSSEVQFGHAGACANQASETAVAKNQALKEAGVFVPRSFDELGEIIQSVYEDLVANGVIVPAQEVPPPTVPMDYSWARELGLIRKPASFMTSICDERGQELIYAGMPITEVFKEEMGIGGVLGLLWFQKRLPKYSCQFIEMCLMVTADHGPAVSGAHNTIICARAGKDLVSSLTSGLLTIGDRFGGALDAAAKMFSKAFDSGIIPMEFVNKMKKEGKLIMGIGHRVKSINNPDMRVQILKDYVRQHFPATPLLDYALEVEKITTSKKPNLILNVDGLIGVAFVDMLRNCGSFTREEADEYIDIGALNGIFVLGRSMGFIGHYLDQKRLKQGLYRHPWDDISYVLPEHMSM

[1] = target: T2, ATP-citrate synthase (Homo sapiens) (UniProt P53396); experiment: Inhibition of ATP citrate lyase (unknown origin) at 100 uM using sodium citrate as substrate in presence of CoA/ATP by ADP-Glo luminescence assay relative to control
T2 sequence (whole entry): T1 sequence (P53396 whole entry)

[2] = target: T2, ATP-citrate synthase (Homo sapiens); experiment: Inhibition of ATP citrate lyase (unknown origin) at 10 uM using sodium citrate as substrate in presence of CoA/ATP by ADP-Glo luminescence assay relative to control
[3] = target: T2, ATP-citrate synthase (Homo sapiens); experiment: Competitive inhibition of ATP citrate lyase (unknown origin) using sodium citrate as substrate by ADP-Glo luminescence assay

| IC50 (ATP-citrate synthase) [µM] | inhibition [1] [%] | inhibition [2] [%] | inhibition [3] | SMILES |
| --- | --- | --- | --- | --- |
| 13.8 | 97 | 42 | – | CCc1ccc(S(=O)(=O)Nc2cc3c(C(=O)O)c(C)oc3c3ccccc23)cc1 |
| – | 64 | 3 | – | Cc1oc(C(=O)O)cc1COc1ccc2c(c1)oc(=O)c1ccccc12 |
| – | 100 | 95 | – | CCCCCCc1cc2c3c(c(=O)oc2cc1OCc1cc(C(=O)O)oc1C)CCCC3 |
| 0.377 | – | – | – | COc1ccc(-c2ccccc2)cc1NS(=O)(=O)c1cc(Cl)cc(Cl)c1O |
| – | 59 | 16 | – | Cc1oc2c(cc(NS(=O)(=O)c3ccc(C(C)(C)C)cc3)c3ccccc32)c1C(=O)O |
| – | – | – | Active | O=C(O)C[C@@](O)(C[C@H](O)CCCCCCc1ccc(Cl)cc1Cl)C(=O)O |
| – | 42 | 12 | – | Cc1ccc(S(=O)(=O)Nc2cc3c(C(=O)O)c(C)oc3c3ccccc23)cc1 |
| – | 90 | 17 | – | Cc1oc(C(=O)O)cc1COc1ccc2c3c(c(=O)oc2c1C)CCCC3 |
| – | 84 | 32 | – | Cc1oc(C(=O)O)cc1COc1ccc2c(oc(=O)c3ccccc32)c1C |
| 11.9 | 101 | 45 | – | Cc1oc(C(=O)O)cc1COc1ccc2c(C)c(Cc3ccccc3)c(=O)oc2c1 |
| – | 88 | 18 | – | Cc1c(OCc2ccc(C(=O)O)o2)ccc2c3c(c(=O)oc12)CCCC3 |
| – | 49 | 9 | – | O=C(O)c1ccc(COc2ccc3c(c2)oc(=O)c2ccccc23)o1 |
| – | – | – | Active | O=C(O)C[C@@](O)(C(=O)O)[C@H](O)C(=O)O |
| – | 95 | 28 | – | Cc1oc2c(cc(NS(=O)(=O)c3ccc(F)cc3)c3ccccc32)c1C(=O)O |
| – | 9 | 6 | – | Cc1oc2ccc(OC(C(=O)O)c3ccccc3)cc2c1C(=O)O (centres undefined) |

From ChEMBL document CHEMBL4000242, “Discovery of furan carboxylate derivatives as novel inhibitors of ATP-citrate lyase via virtual high-throughput screening” (Bioorg Med Chem Lett, 2017)
